Assay results reported in US7736624B2, “Methods and compositions for diagnostic and therapeutic targeting of COX-2” (priority 2006, dated 2010).
Entries after “also recorded” stand apart in the source; their conditions may differ.

Assays:
[1] = Amounts of intact compound in tumors and normal tissues by HPLC-UV/MS; type: in vivo, Nude mice
Excerpt: Additionally, the presence of intact Compound 27vv in tumors and normal tissues were examined by high performance liquid chromatography (HPLC) and mass spectroscopy (MS). Tumors and other tissues were collected from treated mice and immediately frozen on dry ice. Tissues were homogenized in Tris buffer (pH=7.4) and proteins precipitated with acetonitrile (ACN). Protein pellets were collected by centrifugation and dried before reconstitution in Tris buffer pH 7.4 plus 10% methanol. Proteins were purified by reverse-phase solid=phase extraction (RP-SPE) and analyzed by HPLC-UV using the conditions set forth in Table 4:
A standard curve was generated for Compound 27vv between 1 and 15 nmoles. Linear regression analysis generated an equation for the resulting line of y=311624x+85461 (R^2=0.9956). Various normal and tumor samples were then analyzed and the amounts of Compound 27vv present in the samples were determined.
The putative Compound 27vv peak in the tumor samples was collected and analyzed by LCMS in order to verify its identity.

[2] = system: HCA7 colorectal adenocarcinoma cells; assay: In vivo imaging of nude mice xenografted with HCA7 cells; conditions: HCA7 subcutaneous xenograft
Excerpt: In parallel experiments, nude mice were xenografted with a subcutaneous injection on a lateral side of 1×10^6. HCA7 colorectal adenocarcinoma cells (Marsh et al. (1993) J Pathol 170:441-450).

RAW264.7 cells = assay: In vitro cell imaging, LPS/IFNγ-activated RAW264.7 cells; type: cell-based, mouse; conditions: for fluorescence imaging of cells: 200 nM, 30 minutes, LPS-activated RAW264.7; for fluorescent signal after indomethacin pretreatment: indomethacin (20 μM) pretreatment, RAW264.7
Description: RAW264.7 cells (a line established from a tumor induced in a mouse by Abelson murine leukemia virus and available from the American Type Culture Collection, Manassas, Va., United States of America) were grown overnight on 35 mm culture dishes (MatTek Corp., Ashland, Mass., United States of America) with glass coverslips in Dulbecco's Modified Eagle Medium (DMEM) plus 10% heat-inactivated fetal bovine serum (FBS). Platings of cells were done in order to reach 30% confluency the next day. After overnight growth, the growth medium was replaced with 2 ml serum-free DMEM per dish. Individual dishes then received 200 ng/ml LPS plus 10 units/ml murine IFNγ (Roche Applied Science, Indianapolis, Ind., United States of America) for 6 hours to induce COX-2. […] After 30 minutes, the cells were washed briefly three times in medium and incubated in Hank's balanced salt solution (HBSS)/Tyrode's for 60 minutes at 37° C. After 60 minutes, the HBSS/Tyrode's was removed and fresh HBSS/Tyrode's was added. The cells were immediately imaged using a Zeiss Axiovert 25 Microscope (propidium iodide filter/2-3 sec exposure/gain of 2).

[3] = system: liver tumors from SW620 cells; assay: In vivo imaging of nude mice with liver metastases of SW620 cells; conditions: 5 mg/kg i.p.
Excerpt: Nude mice with liver tumors from SW620 cells (a human colorectal adenocarcinoma cell line that expresses a low level of COX-2 and that is available from ATCC) were obtained from Dr. Ray DuBois of the Vanderbilt-Ingram Cancer Center of Vanderbilt University (Nashville, Tenn., United States of America). Mice were obtained about 8-10 weeks after metastasis of the cells from the spleen. Control mice and mice bearing and tumor metastases were anesthetized and injected intraperitoneally (i.p.) with 5 mg/kg Compound 27vv. Images of injected mice were captured by a XENOGEN® IVIS® Imaging System (Xenogen Corp., Alameda, Calif., United States of America) using a Cy5.5 filter or a DsRed filter (1 second exposure/f2/high resolution/1.5 cm depth). […] At 5 hours post-injection, mice were euthanized and liver tumors were imaged by fluorescence microscopy.

[4] = system: COX-2-transformed HEK293 cells; assay: In vitro cell imaging, HEK293 cells expressing human COX-2; type: cell-based; conditions: HEK293/COX-2; for fluorescent staining of cells: 200 nM; for fluorescent staining after indomethacin pretreatment: indomethacin (20 μM) pretreatment
Description: A second experimental design employed HEK293 cells (a cell line generated by transformation of human embryonic kidney cell cultures with adenovirus) that had been transformed with an expression construct encoding a constitutively active human COX-2. For imaging experiments, cells were also plated on 35 mm culture dishes (MatTek Corp., Ashland, Mass., United States of America) with glass coverslips and grown to 70% confluency in DMEM plus 20% FBS. When the appropriate confluency was reached (approximately 48 hours after plating), the medium was replaced with DMEM/1% FBS and exposed to 200 nM Compound 27vv or Compound 27ww as described hereinabove. After 30 minutes, the cells were washed briefly 3 times and incubated in DMEM/10% FBS for 60 minutes at 37° C. After 60 minutes, the medium was removed and the cells were washed with HBSS/Tyrode's. After the second wash, fresh HBSS/Tyrode's was added and the cells were immediately imaged using a Zeiss Axiovert 25 Microscope (propidium iodide filter/3 sec exposure/gain of 3).

[5] = system: 1483 Head/Neck Squamous Cell Carcinoma Cells; assay: In vitro cell imaging, 1483 Head/Neck Squamous Cell Carcinoma Cells; type: cell-based; conditions: 1483 cells

## COc1ccc2c(c1)c(CC(=O)NCCCCNC(=O)c1ccc(C(=O)[O-])c(C3=c4cc5c6c(c4Oc4c3cc3c7c4CCCN7CCC3)CCC[N+]=6CCC5)c1)c(C)n2C(=O)c1ccc(Cl)cc1 [Compound 27vv]
[1]; 5 hours post-injection, HPLC and MS
  intact compound in SW620 tumors: confirmed the presence of intact Compound 27vv
[1]; HPLC and MS
  level in normal liver tissue: below the limit of detection
[1]; Mouse 1 - giant tumor A
  Amount of Compound 27vv in sample: 3.3 nmol
  Compound 27vv: 31.1 nmol/g
[1]; Mouse 1 - giant tumor B
  Amount of Compound 27vv in sample: 1.8 nmol
  Compound 27vv: 15.3 nmol/g
[1]; Mouse 1 - giant tumor C
  Amount of Compound 27vv in sample: 4.7 nmol
  Compound 27vv: 41.1 nmol/g
[1]; Mouse 1 - giant tumor D
  Amount of Compound 27vv in sample: 0.2 nmol
  Compound 27vv: 0.9 nmol/g
[1]; Mouse 2 - normal liver lobe
  Compound 27vv nmol/g: <Std. A
[1]; Mouse 2 - small tumor
  Compound 27vv nmol/g: <Std. A
[1]; Mouse 2 - tissue between the lobes
  Compound 27vv nmol/g: <Std. A
[2]
  tumor fluorescence in vivo and after removal of tumor masses: strong tumor-specific fluorescence
RAW264.7 cells
  fluorescence imaging of cells: LPS activation enhanced imaging; also recorded: consistent fluorescent signals over control cells
  fluorescent signal after indomethacin pretreatment: reduced the fluorescent signal
[3]; 30 minutes and 3-4 hours post-injection
  in vivo fluorescence imaging: liver-specific imaging
[3]; 5 hours post-injection
  fluorescence microscopy of excised liver tumors: strongly fluoresced
[4]
  fluorescent staining of cells: clearly observable fluorescent staining; also recorded: fluorescence above the level observed in control HEK293 cells
  fluorescent staining after indomethacin pretreatment: reduced

## COc1ccc2c(c1)c(CC(=O)NCCCCNC(=O)c1ccc(C3=c4cc5c6c(c4Oc4c3cc3c7c4CCCN7CCC3)CCC[N+]=6CCC5)c(C(=O)[O-])c1)c(C)n2C(=O)c1ccc(Cl)cc1 [Compound 27eee]
[5]; 200 nM
  fluorescent staining of cells: good specific staining; also recorded: considerable fluorescence
[5]; indomethacin pretreatment
  fluorescent staining after indomethacin pretreatment: reducible by pretreatment with indomethacin
RAW264.7 cells
  fluorescence imaging of cells: good specific staining; also recorded: consistent fluorescent signals over control cells
  fluorescent signal after indomethacin pretreatment: reducible by pretreatment with indomethacin
[4]
  fluorescent staining of cells: good specific staining; also recorded: fluorescence above the level observed in control HEK293 cells
  fluorescent staining after indomethacin pretreatment: reducible by pretreatment with indomethacin
